Assay results reported in patent US6211151A, “Peptides with organo-protective activity, a process for preparation thereof and their use in therapy” (priority 1992, dated 2001).
No end group written: not given here.

Experiments:
female mice = experiment: Acute toxicity; assay type: in vivo; conditions: 8, 25 and 50 μg/kg b.w., i.v.; observed 15 days
Description: Acute toxicity of synthetic peptides was determined in female mice (weight ca. 20 g). Groups of 6 animals were used for each experiment and control.
Peptides Seq.Id.No: 2,3,4 and 6 were applied in a dosage of 8, 25 and 50 μg/kg b.w., i.v. Control group was treated with saline (0.9%, 5.0 ml/kg b.w.).

[1] = system: NMRI-Hannover female mice; experiment: Influence on vitamin A induced malformation; assay type: in vivo; conditions: peptide alone, 10 μg or 10 ng/kg b.w., i.p., tenth day of pregnancy
Description: 12. Influence on induced malformation
NMRI-Hannover female mice, two months old, 25 g b.w., but not previously exposed to copulation were used in all experiments. The female mice in the estrus phase were mated overnight with well experienced healthy male mice. The mice were sacrified after 20 days of pregnancy.
Vitamin A was applied in a dose of 15700 U/kg b.w., i.m., at tenth day of the pregnancy (0.05 ml/kg b.w.). Peptide Seq.Id.No: 4 was given simultaneously in a dosage of 10 μg or 10 ng/kg b.w.,i.p.
Control: saline 5.0 ml/kg b.w., i.p.
Animals non treated with vitamin A receiving at the same time i.p. saline or peptide 4 in the same dosage served as healthy control.

Wistar male rats = experiment: Turpentine induced buccal edemas; assay type: in vivo, rat; conditions: 10 μg/kg b.w., i.p. and i.g., 1 hour before turpentine; measured 24 hours after induction
Description: 3. Turpentine induced buccal edemas
Wistar male rats (180-240 g), N=10 in each group. Turpentine was given intramucosally 0.02 ml/rat. Control: 0.9% saline intramucosally (0.02 ml/rat, 2×). Peptides Seq. Id. No: 2 and 4 were applied in a dose of 10 μg and 10 ng/kg, i.p. and i.g., 1 hour before turpentine. Buccal edemas were measured 24 hours after edema induction. Statistical analysis: Mann-Whitney test. The investigated peptides were effective in a dosage of 10 μg/kg b.w.

[2] = system: Albino Wistar (male) rats; experiment: Gastric ulcer induced by restraint stress; assay type: in vivo, rat; conditions: 10 μg or 10 ng/kg b.w., i.p. or i.g., 1 hour before 48 hours immobilization; even at 10 ng/kg
Description: 1.) Gastric ulcer induced by restraint stress
Albino Wistar (male) rats (180-200 g), were used in the experiments. All the animals were immobilized in a supine position for 48 hours at room temperature. Immediately thereafter they were sacrified and the lesions measured. The peptides Seq. Id. No: 4, 6 and 2 were applied in dosage of 10 μg or 10 ng/kg b.w., i.p. or i.g. 1 hour before noxious procedure.

Substance	signs of toxicity or death (female mice)	malformation in animals not treated with vitamin A [1]	effect on buccal edemas (Wistar male rats)	protection against restraint stress gastric lesions [2]
EPPPLKPA [Seq. Id. No: 6]	no signs of toxicity or death	–	–	–
LEPPPLKPADALGV [Seq. Id. No: 4]	no signs of toxicity or death	No malformation	–	–
LEPPPLKPADDALGV [Seq.Id.No: 3]	no signs of toxicity or death	–	–	–
Seq. Id. No: 2: synthetic peptide of 8 to 15 amino acid residues with BPC-type activity; sequence not printed in this text (GEPPPGKPADDAGLV)	no signs of toxicity or death	–	effective	strongly protective
